Source: patent publication EP4678644A1, “SUBSTITUTED DIHYDROTHIENOPYRIMIDINE COMPOUND, PREPARATION METHOD THEREFOR, AND USE THEREOF” (Shanghai Yidi Biotechnology Co., Ltd., priority 2023, dated 2024)
pIC50: −log10 of the molar value.

What was measured:
[1] = target: PDE4D2 (Homo sapiens, UniProt Q08499); test: PDE4D2 enzyme experiment (AMP-glo, cAMP substrate); type: biochemical; settings: read-out: PDE4D2 IC50 Binding
Excerpt: Inhibition rate % ^= (1 - (RLUpositive control - RLUcompound)/(RLUpositive control - RLUnegative control)) * 100.

[2] = target: T1, PDE4B2 (Homo sapiens, UniProt Q07343); test: PDE4B2 enzyme experiment (AMP-glo, cAMP substrate); type: biochemical; settings: for inhibition at 0.01 µM: read-out: PDE4B2 Enzyme Inhibition% @10 nM; for inhibition at 0.1 µM: read-out: PDE4B2 Enzyme Inhibition% @100 nM
T1 construct: expressed in transfected cells; host or cells: Flp-In-293 (Flpin-293-PDE4B2 [sic])
T1 sequence (Q07343 1-564 isoform Q07343-2): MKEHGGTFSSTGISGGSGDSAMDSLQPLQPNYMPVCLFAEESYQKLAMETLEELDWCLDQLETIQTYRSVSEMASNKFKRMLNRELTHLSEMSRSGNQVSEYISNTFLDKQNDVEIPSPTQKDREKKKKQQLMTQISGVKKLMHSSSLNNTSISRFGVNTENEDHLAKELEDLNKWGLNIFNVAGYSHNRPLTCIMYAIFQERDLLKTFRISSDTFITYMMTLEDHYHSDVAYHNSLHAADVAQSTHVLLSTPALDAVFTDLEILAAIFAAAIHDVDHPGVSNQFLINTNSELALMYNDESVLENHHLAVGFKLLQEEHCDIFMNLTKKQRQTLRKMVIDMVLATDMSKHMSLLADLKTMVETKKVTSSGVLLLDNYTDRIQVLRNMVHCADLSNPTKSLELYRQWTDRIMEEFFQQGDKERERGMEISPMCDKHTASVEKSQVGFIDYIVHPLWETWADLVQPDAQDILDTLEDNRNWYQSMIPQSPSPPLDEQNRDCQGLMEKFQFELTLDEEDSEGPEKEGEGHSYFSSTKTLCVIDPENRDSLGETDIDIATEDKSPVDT

[3] = target: T1, PDE4B2; test: PDE4B2 cell experiment (cAMP, Eu-cAMP tracer / Ulight-anti-cAMP); type: cell-based; settings: Flpin-293-PDE4B2 cells; for inhibition at 0.01 µM / Cell Inhibition% @10 nM: 10 nM; for inhibition at 0.1 µM / Cell Inhibition% @100 nM: 100 nM; for pIC50: Foskolin
Experimental: All compounds were dissolved in DMSO into 10 mM or 20 mM stock solutions. The compound to be tested was diluted with DMSO with a 3-fold gradient. […] 40 nL/well of the compound or a DMSO control was transferred to a 384-well plate by using Echo 550 instrument. […] The plate was incubated at 37°C for 30 minutes. Eu-cAMP tracer and Ulight-anti-cAMP were frozen and thawed and diluted in a lysis buffer. 10 of µl Eu-cAMP tracer was added to an experimental well, and 10 µl of Ulight-anti-cAMP was added to the experimental well. The reaction plate was centrifuged at 200 g at room temperature for 30 s and then left to stand at 25°C for 1 h, and data was then collected by Envision. Inhibition % = 100 - (Signal compound - SignalAve positive control)/(SignalAve negative control - SignalAve positive control) × 100. Graphpad 8.0 software was then used to obtain an IC50 value by calculation using Y = Bottom + (Top - Bottom)/(1 + 10^((LogIC50 - X) * HillSlope)).

PDE4D2, sequence (Q08499 303-809 limits assumed): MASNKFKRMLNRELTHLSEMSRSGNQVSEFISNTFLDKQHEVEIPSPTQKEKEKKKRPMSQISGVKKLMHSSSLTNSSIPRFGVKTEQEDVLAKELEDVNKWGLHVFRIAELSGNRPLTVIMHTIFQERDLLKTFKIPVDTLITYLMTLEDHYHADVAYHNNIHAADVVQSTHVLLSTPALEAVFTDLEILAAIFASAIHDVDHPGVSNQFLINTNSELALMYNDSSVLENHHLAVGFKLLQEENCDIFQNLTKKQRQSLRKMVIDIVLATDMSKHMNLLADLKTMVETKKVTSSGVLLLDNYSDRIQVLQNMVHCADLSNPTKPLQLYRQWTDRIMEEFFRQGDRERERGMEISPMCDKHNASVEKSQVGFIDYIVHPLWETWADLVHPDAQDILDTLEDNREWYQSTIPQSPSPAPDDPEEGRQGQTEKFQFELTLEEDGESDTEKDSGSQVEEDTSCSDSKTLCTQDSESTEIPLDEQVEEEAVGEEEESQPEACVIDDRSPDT

SMILES: [O-][S@+]1CCc2nc(N3CCc4cc(Br)sc4C3)nc(NC3(CO)CCC3)c21 [Compound 53, (R)-2-(2-bromo-4,7-dihydrothieno[2,3-c]pyridin-6(5H)-yl)-4-((1-(hydroxymethyl)cyclobutyl)amino)-6,7-dihydrothieno[3,2-d]pyrimidine 5-oxide]
- pIC50 [1]: 8.91

SMILES: [O-][S@+]1CCc2nc(N3CCc4c(nn5cc(Cl)ccc45)C3)nc(NC3(CO)CCC3)c21 [Compound 9, (R)-2-(7-Chloro-3,4-dihydropyrazolo[1,5-a:3,4-c']dipyridin-2(1H)-yl)-4-((1-(hydroxymethyl)cyclobutyl)amino)-6,7-dihydrothieno[3,2-d]pyrimidine 5-oxide]
- pIC50 [1]: 9.65

SMILES: [O-][S@+]1CCc2nc(N3CCc4cc(Cl)ccc4C3)nc(NC3(CO)CCC3)c21 [Compound 18, (R)-2-(6-chloro-3,4-dihydroisoquinolin-2(1H)-yl)-4-((1-(hydroxymethyl)cyclobutyl)amino)-6,7-dihydrothieno[3,2-d]pyrimidine 5-oxide]
- pIC50 [1]: 8.49

SMILES: Cn1nccc1-c1ccc2c(c1)CCN(c1nc3c(c(NC4(CO)CCC4)n1)[S@+]([O-])CC3)C2 [Compound 76, (R)-4-((1-(hydroxymethyl)cyclobutyl)amino)-2-(6-(1-methyl-1H-pyrazol-5-yl)-3,4-dihydroisoquinolin-2(1H)-yl)-6,7-dihydrothieno[3,2-d]pyrimidine 5-oxide]
- pIC50 [1]: 10.05

SMILES: [O-][S@+]1CCc2nc(N3CCc4cc(C5CC5)ccc4C3)nc(NC3(CO)CCC3)c21 [Compound 66, (R)-2-(6-cyclopropyl-3,4-dihydroisoquinolin-2(1H)-yl)-4-((1-(hydroxymethyl)cyclobutyl)amino)-6,7-dihydrothieno[3,2-d]pyrimidine 5-oxide]
- pIC50 [1]: 8.95

SMILES: [O-][S@+]1CCc2nc(N3CCc4nc(N5CCCC5)cnc4C3)nc(NC3(CO)CCC3)c21 [Compound 218, (R)-4-((1-(hydroxymethyl)cyclobutyl)amino)-2-(2-(pyrrolidin-1-yl)-7,8-dihydropyrido[3,4-b]pyrazin-6(5H)-yl)-6,7-dihydrothieno[3,2-d]pyrimidine 5-oxide]
- pIC50 [1]: 8.73

SMILES: [O-][S@+]1CCc2nc(N3Cc4nc5cc(Cl)ccn5c4C3)nc(NC3(CO)CCC3)c21 [Compound 8, (R)-2-(6-chloro-1,3-dihydro-2H-pyrrolo[3',4':4,5]imidazo[1,2-a]pyridin-2-yl)-4-((1-(hydroxymethyl)cyclobutyl)amino)-6,7-dihydrothieno[3,2-d]pyrimidine 5-oxide]
- inhibition at 0.01 µM [2]: 45%
- inhibition at 0.1 µM [2]: 94.1%
- inhibition at 0.01 µM [3]: 3.5%
- inhibition at 0.1 µM [3]: 15.1%

SMILES: [O-][S@+]1CCc2nc(N3CCc4c(c(Cl)nc5cc(Cl)ccc45)C3)nc(NC3(CO)CCC3)c21 [Compound 73, (R)-2-(5,8-dichloro-1,4-dihydrobenzo[c][2,7]naphthyridin-3(2H)-yl)-4-((1-(hydroxymethyl)cyclobutyl)amino)-6,7-dihydrothieno[3,2-d]pyrimidine 5-oxide]
- pIC50 [1]: 9.02

SMILES: [O-][S+]1CCc2nc(N3CCc4sc(Br)cc4C3)nc(NC3(CO)CCC3)c21 (stereo not drawn) [Compound 55]
- PDE4B2 Enzyme Inhibition% @10 nM [2]: 93.26%
- PDE4B2 Enzyme Inhibition% @100 nM [2]: 99.90%
- Cell Inhibition% @10 nM [3]: 52.78%
- Cell Inhibition% @100 nM [3]: 93.43%

SMILES: [O-][S+]1CCc2nc(N3CCc4cc(F)ccc4C3)nc(NC3(CO)CCC3)c21 (stereo not drawn) [Compound 23]
- pIC50 [2]: 8.55
- pIC50 [3]: 7.54

SMILES: [O-][S@+]1CCc2nc(N3CC[C@@H]4c5ccc(Cl)cc5CC[C@@H]4C3)nc(NC3(CO)CCC3)c21 [Compound 12, (R)-2-((4aS,10bS)-8-chloro-1,4,4a,5,6,10-hexahydrobenzo[f]isoquinolin-3(2H)-yl)-4-((1-(hydroxymethyl)cyclobutyl)amino)-6,7-dihydrothieno[3,2-d]pyrimidine 5-oxide]
- pIC50 [2]: 7.81
- inhibition at 0.01 µM [3]: 16%
- inhibition at 0.1 µM [3]: 7.46%

SMILES: [O-][S+]1CCc2nc(N3CCc4sccc4C3)nc(NC3(CO)CCC3)c21 (stereo not drawn) [Compound 37]
- pIC50 [2]: 8.52
- pIC50 [3]: 7.05

SMILES: [O-][S@+]1CCc2nc(N3CC[C@H]4c5ccc(Cl)cc5OC[C@@H]4C3)nc(NC3(CO)CCC3)c21 [Compound 13, (R)-2-((4aS,10bR)-8-chloro-1,4a,5,10b-tetrahydro-2H-chromeno[3,4-c]pyridin-3(4H)-yl)-4-((1-(hydroxymethyl)cyclobutyl)amino)-6,7-dihydrothieno[3,2-d]pyrimidine 5-oxide]
- pIC50 [2]: 8.19
- pIC50 [3]: 6.25

SMILES: [O-][S+]1CCc2nc(N3CCc4c(Cl)cccc4C3)nc(NC3(CO)CCC3)c21 (stereo not drawn) [Compound 19]
- pIC50 [2]: 8.14
- pIC50 [3]: 6.69

SMILES: [O-][S+]1CCc2nc(N3CCc4ccc(Cl)cc4C3)nc(NC3(CO)CCC3)c21 (stereo not drawn) [Compound 20]
- pIC50 [2]: 8.73
- Cell Inhibition% @10 nM [3]: 14.18%
- Cell Inhibition% @100 nM [3]: 69.92%

SMILES: [O-][S+]1CCc2nc(N3CCc4cccc(Cl)c4C3)nc(NC3(CO)CCC3)c21 (stereo not drawn) [Compound 21]
- pIC50 [2]: 8.68
- Cell Inhibition% @10 nM [3]: 18.76%
- Cell Inhibition% @100 nM [3]: 79.24%

SMILES: [O-][S+]1CCc2nc(N3CCc4ccc(Br)cc4CC3)nc(NC3(CO)CCC3)c21 (stereo not drawn) [Compound 46]
- PDE4B2 Enzyme Inhibition% @10 nM [2]: 98.91%
- PDE4B2 Enzyme Inhibition% @100 nM [2]: 100.22%
- Cell Inhibition% @10 nM [3]: 69.61%
- Cell Inhibition% @100 nM [3]: 99.05%

SMILES: N#Cc1ccc2c(c1)CN(c1nc3c(c(NC4(CO)CCC4)n1)[S@+]([O-])CC3)C2 [Compound 60, (R)-2-(4-((1-(hydroxymethyl)cyclobutyl)amino)-5-oxido-6,7-dihydrothieno[3,2-d]pyrimidin-2-yl)isoindoline-5-carbonitrile]
- inhibition at 0.01 µM [2]: 65.8%
- inhibition at 0.1 µM [2]: 99.3%
- inhibition at 0.01 µM [3]: 21.2%
- inhibition at 0.1 µM [3]: 65.9%

SMILES: Cn1nc2c(c1Cl)CN(c1nc3c(c(NC4(CO)CCC4)n1)[S+]([O-])CC3)CC2 (stereo not drawn) [Compound 58]
- PDE4B2 Enzyme Inhibition% @10 nM [2]: 68.74%
- PDE4B2 Enzyme Inhibition% @100 nM [2]: 97.48%
- Cell Inhibition% @10 nM [3]: 15.88%
- Cell Inhibition% @100 nM [3]: 57.11%

SMILES: [O-][S@+]1CCc2nc(N3CCc4cc5c(cc4C3)OC(F)(F)O5)nc(NC3(CO)CCC3)c21 [Compound 48, (R)-2-(2,2-difluoro-7,8-dihydro-[1,3]dioxolo[4,5-g]isoquinolin-6(5H)-yl)-4-((1-(hydroxymethyl)cyclobutyl)amino)-6,7-dihydrothieno[3,2-d]pyrimidine 5-oxide]
- inhibition at 0.01 µM [2]: 87%
- inhibition at 0.1 µM [2]: 101%
- inhibition at 0.01 µM [3]: 25.7%
- inhibition at 0.1 µM [3]: 76.2%

SMILES: [O-][S+]1CCc2nc(N3Cc4ccc(Cl)cc4C3)nc(NC3(CO)CCC3)c21 (stereo not drawn) [Compound 33]
- PDE4B2 Enzyme Inhibition% @10 nM [2]: 72.33%
- PDE4B2 Enzyme Inhibition% @100 nM [2]: 98.64%
- Cell Inhibition% @10 nM [3]: 9%
- Cell Inhibition% @100 nM [3]: 33.2%

SMILES: C[C@H]1c2ccc(Cl)cc2CCN1c1nc2c(c(NC3(CO)CCC3)n1)[S@+]([O-])CC2 [Compound 28, (R)-2-((S)-6-chloro-1-methyl-3,4-dihydroisoquinolin-2(1H)-yl)-4-((1-(hydroxymethyl)cyclobutyl)amino)-6,7-dihydrothieno[3,2-d]pyrimidine 5-oxide]
- pIC50 [2]: 9.17
- pIC50 [3]: 7.44

SMILES: [O-][S+]1CCc2nc(N3CCc4c(nn5cccc(Cl)c45)C3)nc(NC3(CO)CCC3)c21 (stereo not drawn) [Compound 10]
- pIC50 [2]: 8.64
- pIC50 [3]: 7.13

SMILES: [O-][S+]1CCc2nc(N3Cc4ccc(C(F)(F)F)cc4C3)nc(NC3(CO)CCC3)c21 (stereo not drawn) [Compound 62]
- PDE4B2 Enzyme Inhibition% @10 nM [2]: 83.85%
- PDE4B2 Enzyme Inhibition% @100 nM [2]: 100.57%
- Cell Inhibition% @10 nM [3]: 29.5%
- Cell Inhibition% @100 nM [3]: 69.1%
